pIC50: −log10 of the molar value.
Tests used:
Type in all cases: biochemical
Jnk1 = Jnk1 (Homo sapiens, UniProt P45983); assay: Kinase activity assay, Jnk1; conditions: under the test conditions employed; read-out: activity toward kinase Jnk1, IC50
Experimental: (§1) The effect of potential modulators of kinase activity of c-kit and other kinases can be measured in a variety of different assays known in the art, e.g., biochemical assays, cell-based assays, and in vivo testing (e.g. model system testing). Such in vitro and/or in vivo assays and tests can be used in the present invention. As an exemplary kinase assay, the kinase activity of c-kit or Fms is measured in AlphaScreening (Packard BioScience). Assays for the activity of various kinases are described, for example, in U.S. patent application Ser. No. 11/473,347 (see also, PCT publication WO2007002433), the disclosure of which is hereby incorporated by reference.

Kdr = Kdr (Homo sapiens, UniProt P35968); assay: Kinase activity assay, Kdr; conditions: under the test conditions employed; read-out: activity toward kinase Kdr, IC50
Experimental: as §1

Kit = Kit (Homo sapiens, UniProt P10721); assay: Kinase activity assay, Kit; conditions: under the test conditions employed; read-out: activity toward kinase Kit, IC50
Experimental: as §1

B-Raf V600E/T529I = B-Raf V600E/T529I (Homo sapiens, UniProt P15056, T529I/V600E); assay: Kinase activity assay, B-Raf V600E/T529I; conditions: under the test conditions employed; read-out: activity toward kinase B-Raf V600E/T529I, IC50
Experimental: as §1

B-Raf = B-Raf (Homo sapiens, UniProt P15056); assay: Kinase activity assay, B-Raf; conditions: under the test conditions employed; read-out: activity toward kinase B-Raf, IC50
Experimental: as §1

B-Raf V600E = B-Raf V600E (Homo sapiens, UniProt P15056, V600E); assay: Kinase activity assay, B-Raf V600E; conditions: under the test conditions employed; read-out: activity toward kinase B-Raf V600E, IC50
Experimental: as §1

c-Raf-1 = c-Raf-1 (Homo sapiens, UniProt P04049); assay: Kinase activity assay, c-Raf-1; conditions: under the test conditions employed; read-out: activity toward kinase c-Raf-1, IC50
Experimental: as §1

Flt1 = Flt1 (Homo sapiens, UniProt P17948); assay: Kinase activity assay, Flt1; conditions: under the test conditions employed; read-out: activity toward kinase Flt1, IC50
Experimental: as §1

Fms = Fms (Homo sapiens, UniProt P07333); assay: Kinase activity assay, Fms; conditions: under the test conditions employed; read-out: activity toward kinase Fms, IC50
Experimental: as §1

Src = Src (Homo sapiens, UniProt P12931); assay: Kinase activity assay, Src; conditions: under the test conditions employed; read-out: activity toward kinase Src, IC50
Experimental: as §1

Btk = Btk (Homo sapiens, UniProt Q06187); assay: Kinase activity assay, Btk; conditions: under the test conditions employed; read-out: activity toward kinase Btk, IC50
Experimental: as §1

Measured: pIC50

Chain of B-Raf V600E (P15056 whole entry V600E): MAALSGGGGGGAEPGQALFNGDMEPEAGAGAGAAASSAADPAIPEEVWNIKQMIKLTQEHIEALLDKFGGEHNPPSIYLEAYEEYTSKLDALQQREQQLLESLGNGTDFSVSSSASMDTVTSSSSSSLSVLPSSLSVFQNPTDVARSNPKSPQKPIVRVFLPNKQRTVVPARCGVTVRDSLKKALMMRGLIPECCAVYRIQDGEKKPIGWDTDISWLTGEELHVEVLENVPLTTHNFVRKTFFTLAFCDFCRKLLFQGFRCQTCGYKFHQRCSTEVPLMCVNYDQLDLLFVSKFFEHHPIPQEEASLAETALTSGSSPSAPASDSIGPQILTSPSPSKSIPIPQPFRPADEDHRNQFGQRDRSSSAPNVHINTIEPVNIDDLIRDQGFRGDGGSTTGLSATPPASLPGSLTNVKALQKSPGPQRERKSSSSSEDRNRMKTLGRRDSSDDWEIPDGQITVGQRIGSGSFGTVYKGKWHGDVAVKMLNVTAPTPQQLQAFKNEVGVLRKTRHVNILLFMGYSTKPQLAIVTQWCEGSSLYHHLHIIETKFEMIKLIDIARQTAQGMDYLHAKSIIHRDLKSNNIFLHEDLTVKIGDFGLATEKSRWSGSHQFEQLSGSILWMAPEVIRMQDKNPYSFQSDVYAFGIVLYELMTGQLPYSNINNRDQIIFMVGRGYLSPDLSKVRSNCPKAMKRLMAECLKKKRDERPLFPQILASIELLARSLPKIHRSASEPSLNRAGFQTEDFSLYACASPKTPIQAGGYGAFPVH
Chain of B-Raf V600E/T529I (P15056 whole entry T529I/V600E): as the sequence (P15056 whole entry V600E) above, with T529I counted along it
Chain of B-Raf (P15056 whole entry): as the sequence (P15056 whole entry V600E) above, with E600V counted along it
Chain of Src (P12931 whole entry): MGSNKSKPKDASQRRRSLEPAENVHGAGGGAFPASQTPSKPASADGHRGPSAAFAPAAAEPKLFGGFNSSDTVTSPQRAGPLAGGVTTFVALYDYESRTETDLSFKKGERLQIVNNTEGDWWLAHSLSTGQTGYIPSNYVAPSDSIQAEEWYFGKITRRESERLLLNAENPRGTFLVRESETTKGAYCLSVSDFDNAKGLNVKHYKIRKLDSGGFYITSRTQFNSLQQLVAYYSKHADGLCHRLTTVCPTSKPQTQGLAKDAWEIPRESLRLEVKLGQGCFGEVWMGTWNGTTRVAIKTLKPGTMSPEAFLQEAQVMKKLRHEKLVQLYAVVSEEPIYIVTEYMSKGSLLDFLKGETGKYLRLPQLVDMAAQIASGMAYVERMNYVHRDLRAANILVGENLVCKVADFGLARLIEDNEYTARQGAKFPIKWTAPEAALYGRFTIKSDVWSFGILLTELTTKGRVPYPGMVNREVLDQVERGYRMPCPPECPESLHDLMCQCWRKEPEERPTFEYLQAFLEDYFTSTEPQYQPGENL
Chain of Jnk1 (P45983 whole entry): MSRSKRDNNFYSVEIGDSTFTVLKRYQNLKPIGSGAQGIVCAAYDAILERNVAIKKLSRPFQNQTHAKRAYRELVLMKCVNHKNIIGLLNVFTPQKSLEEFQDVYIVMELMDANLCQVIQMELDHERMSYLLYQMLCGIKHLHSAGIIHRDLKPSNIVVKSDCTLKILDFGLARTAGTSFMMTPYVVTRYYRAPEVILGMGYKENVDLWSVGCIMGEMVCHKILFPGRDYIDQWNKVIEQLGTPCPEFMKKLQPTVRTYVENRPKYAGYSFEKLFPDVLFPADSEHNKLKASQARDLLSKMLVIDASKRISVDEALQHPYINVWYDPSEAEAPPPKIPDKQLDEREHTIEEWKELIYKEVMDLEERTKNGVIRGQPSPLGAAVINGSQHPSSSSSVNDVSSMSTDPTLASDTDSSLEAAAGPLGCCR
Chain of Kit (P10721 26-976): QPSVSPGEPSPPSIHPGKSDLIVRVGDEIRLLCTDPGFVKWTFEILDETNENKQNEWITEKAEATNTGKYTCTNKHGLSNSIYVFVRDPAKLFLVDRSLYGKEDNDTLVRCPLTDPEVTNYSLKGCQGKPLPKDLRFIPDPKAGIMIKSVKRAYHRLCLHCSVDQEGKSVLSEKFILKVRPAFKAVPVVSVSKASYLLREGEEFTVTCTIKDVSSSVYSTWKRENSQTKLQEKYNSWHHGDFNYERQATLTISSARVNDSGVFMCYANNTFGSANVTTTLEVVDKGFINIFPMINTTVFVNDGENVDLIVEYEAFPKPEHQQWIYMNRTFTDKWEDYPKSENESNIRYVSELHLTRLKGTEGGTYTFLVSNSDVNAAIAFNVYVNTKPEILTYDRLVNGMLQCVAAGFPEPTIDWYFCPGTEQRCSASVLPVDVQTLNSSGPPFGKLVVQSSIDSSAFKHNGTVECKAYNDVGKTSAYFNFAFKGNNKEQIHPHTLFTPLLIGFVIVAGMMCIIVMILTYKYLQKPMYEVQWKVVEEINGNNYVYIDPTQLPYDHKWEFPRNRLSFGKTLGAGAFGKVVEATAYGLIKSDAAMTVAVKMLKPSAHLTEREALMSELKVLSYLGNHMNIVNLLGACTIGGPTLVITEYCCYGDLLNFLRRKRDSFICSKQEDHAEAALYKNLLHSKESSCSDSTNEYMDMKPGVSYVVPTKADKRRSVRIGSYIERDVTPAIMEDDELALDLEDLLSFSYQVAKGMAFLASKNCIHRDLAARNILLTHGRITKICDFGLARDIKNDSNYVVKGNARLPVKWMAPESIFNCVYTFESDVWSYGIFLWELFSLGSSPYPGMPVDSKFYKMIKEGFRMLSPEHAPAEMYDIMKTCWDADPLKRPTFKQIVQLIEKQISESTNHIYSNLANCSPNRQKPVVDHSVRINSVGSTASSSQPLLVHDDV
Chain of Fms (P07333 20-972): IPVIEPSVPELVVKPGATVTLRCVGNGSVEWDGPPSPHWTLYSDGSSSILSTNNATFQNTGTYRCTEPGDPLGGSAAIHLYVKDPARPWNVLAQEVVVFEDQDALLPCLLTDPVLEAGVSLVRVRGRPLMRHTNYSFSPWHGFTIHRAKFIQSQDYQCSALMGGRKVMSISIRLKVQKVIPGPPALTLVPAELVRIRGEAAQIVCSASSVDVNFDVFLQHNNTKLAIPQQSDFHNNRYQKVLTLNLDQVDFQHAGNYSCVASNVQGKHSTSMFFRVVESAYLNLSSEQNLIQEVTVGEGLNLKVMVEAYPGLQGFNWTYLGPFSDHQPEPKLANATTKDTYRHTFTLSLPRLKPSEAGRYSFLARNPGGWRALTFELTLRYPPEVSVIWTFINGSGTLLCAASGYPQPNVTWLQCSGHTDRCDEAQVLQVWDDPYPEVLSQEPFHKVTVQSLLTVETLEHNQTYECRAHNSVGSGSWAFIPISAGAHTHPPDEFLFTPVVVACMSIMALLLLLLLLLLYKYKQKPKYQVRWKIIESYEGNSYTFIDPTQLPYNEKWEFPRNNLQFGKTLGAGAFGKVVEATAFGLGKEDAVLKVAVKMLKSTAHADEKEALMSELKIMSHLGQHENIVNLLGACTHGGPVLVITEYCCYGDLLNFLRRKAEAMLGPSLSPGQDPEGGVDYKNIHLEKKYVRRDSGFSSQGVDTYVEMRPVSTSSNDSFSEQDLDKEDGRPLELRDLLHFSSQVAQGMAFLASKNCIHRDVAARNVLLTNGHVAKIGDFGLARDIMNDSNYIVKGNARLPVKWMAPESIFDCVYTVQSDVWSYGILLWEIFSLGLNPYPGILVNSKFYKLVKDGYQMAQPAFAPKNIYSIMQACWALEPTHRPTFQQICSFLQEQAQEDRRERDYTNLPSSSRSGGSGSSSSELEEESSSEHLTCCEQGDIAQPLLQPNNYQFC
Chain of Kdr (P35968 20-1356): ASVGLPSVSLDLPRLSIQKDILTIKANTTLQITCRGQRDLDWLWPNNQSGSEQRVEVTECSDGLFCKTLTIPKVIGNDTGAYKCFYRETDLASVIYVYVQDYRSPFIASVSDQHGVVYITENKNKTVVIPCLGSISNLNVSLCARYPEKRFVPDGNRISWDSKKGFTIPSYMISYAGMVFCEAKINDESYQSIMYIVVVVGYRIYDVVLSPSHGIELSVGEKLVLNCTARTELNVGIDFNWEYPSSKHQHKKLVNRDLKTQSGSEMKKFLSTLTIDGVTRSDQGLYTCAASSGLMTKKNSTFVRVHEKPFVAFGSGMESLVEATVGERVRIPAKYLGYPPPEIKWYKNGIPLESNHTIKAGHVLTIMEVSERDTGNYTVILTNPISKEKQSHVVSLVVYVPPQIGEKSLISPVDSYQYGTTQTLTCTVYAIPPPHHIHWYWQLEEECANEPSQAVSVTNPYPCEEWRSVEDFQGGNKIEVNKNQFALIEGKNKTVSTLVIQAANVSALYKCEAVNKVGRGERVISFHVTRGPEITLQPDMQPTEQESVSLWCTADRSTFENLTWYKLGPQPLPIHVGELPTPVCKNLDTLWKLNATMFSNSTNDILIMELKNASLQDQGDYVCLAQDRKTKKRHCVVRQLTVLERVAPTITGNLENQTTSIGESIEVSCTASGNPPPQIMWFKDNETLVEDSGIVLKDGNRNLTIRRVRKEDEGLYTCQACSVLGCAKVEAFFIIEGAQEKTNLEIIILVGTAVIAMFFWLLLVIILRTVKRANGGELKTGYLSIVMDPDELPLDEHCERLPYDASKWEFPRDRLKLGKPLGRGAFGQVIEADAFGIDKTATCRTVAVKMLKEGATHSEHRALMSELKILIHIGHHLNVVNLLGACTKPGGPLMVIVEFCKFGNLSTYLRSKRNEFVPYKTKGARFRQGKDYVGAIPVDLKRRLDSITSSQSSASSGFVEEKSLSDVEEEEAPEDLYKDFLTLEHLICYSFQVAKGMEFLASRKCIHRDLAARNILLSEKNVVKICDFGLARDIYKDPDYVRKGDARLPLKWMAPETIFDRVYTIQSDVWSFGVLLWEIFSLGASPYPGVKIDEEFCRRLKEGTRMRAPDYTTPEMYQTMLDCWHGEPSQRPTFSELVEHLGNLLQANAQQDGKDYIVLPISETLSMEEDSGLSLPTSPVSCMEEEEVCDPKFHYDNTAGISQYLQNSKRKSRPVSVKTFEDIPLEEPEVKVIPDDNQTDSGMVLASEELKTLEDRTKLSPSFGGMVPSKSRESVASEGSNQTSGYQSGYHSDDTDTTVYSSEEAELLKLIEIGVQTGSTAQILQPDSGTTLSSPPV

c1cc2cc(OC3CCCC3)cnc2[nH]1 [P-0001, 5-cyclopentyloxy-1H-pyrrolo[2,3-b]pyridine]
≥ 5.00: Jnk1 | Kdr | Kit

c1ccc(COc2cnc3[nH]ccc3c2)cc1 [P-0002, 5-(benzyloxy)-1H-pyrrolo[2,3-b]pyridine]
≥ 5.00: Jnk1 | Kdr | Kit

COc1cccc(COc2cnc3[nH]ccc3c2)c1 [P-0003, 5-(3-methoxybenzyloxy)-1H-pyrrolo[2,3-b]pyridine]
≥ 5.00: Kdr

COc1ccc(COc2cnc3[nH]ccc3c2)c(OC)c1 [P-0008, 5-(2,4-dimethoxybenzyloxy)-1H-pyrrolo[2,3-b]pyridine]
≥ 5.00: B-Raf V600E/T529I

COCCOc1cnc2[nH]ccc2c1 [P-0009, 5-(2-methoxyethoxy)-1H-pyrrolo[2,3-b]pyridine]
≥ 5.00: B-Raf | B-Raf V600E

FC(F)Oc1ccc(COc2cnc3[nH]ccc3c2)cc1 [P-0014, 5-(4-(difluoromethoxy)benzyloxy)-1H-pyrrolo[2,3-b]pyridine]
≥ 5.00: Kdr

c1cc2cc(OCC3CCOCC3)cnc2[nH]1 [P-0019, 5-((tetrahydro-2H-pyran-4-yl)methoxy)-1H-pyrrolo[2,3-b]pyridine]
≥ 5.00: B-Raf | B-Raf V600E

c1ccc(CN2CC[C@H](Oc3cnc4[nH]ccc4c3)C2)cc1 [P-0026, 5-((S)-1-benzylpyrrolidin-3-yloxy)-1H-pyrrolo[2,3-b]pyridine]
≥ 5.00: B-Raf

CCCS(=O)(=O)Nc1ccc(F)c(C(=O)c2c[nH]c3ncc(OC4CCCC4)cc23)c1F [P-0033, propane-1-sulfonic acid [3-(5-cyclopentyloxy-1H-pyrrolo[2,3-b]pyridine-3-carbonyl)-2,4-difluoro-phenyl]-amide]
not listed: Btk
≥ 5.00: all other assays above

CCCS(=O)(=O)Nc1ccc(F)c(C(=O)c2c[nH]c3ncc(OCc4ccccc4)cc23)c1F [P-0034, Propane-1-sulfonic acid [3-(5-benzyloxy-1H-pyrrolo[2,3-b]pyridine-3-carbonyl)-2,4-difluoro-phenyl]-amide]
≥ 5.00: B-Raf | B-Raf V600E | B-Raf V600E/T529I | c-Raf-1 | Flt1 | Kdr

c1ccc(Oc2cnc3[nH]ccc3c2)cc1 [P-0035, 5-phenoxy-1H-pyrrolo[2,3-b]pyridine]
≥ 5.00: Fms | Kdr | Kit

O=C(c1ccc(Cl)cc1Cl)c1c[nH]c2ncc(Oc3ccccc3)cc12 [P-0036, (2,4-dichloro-phenyl)-(5-phenoxy-1H-pyrrolo[2,3-b]pyridin-3-yl)-methanone]
≥ 5.00: Btk | Fms | Kdr | Kit

Clc1ccc(Cc2c[nH]c3ncc(Oc4ccccc4)cc23)c(Cl)c1 [P-0037, 3-(2,4-dichloro-benzyl)-5-phenoxy-1H-pyrrolo[2,3-b]pyridine]
≥ 5.00: Fms | Kdr | Kit

CS(=O)(=O)c1ccc(Oc2cnc3[nH]cc(C(=O)c4ccc(F)cc4Cl)c3c2)cc1 [P-0038, (2-Chloro-4-fluoro-phenyl)-[5-(4-methanesulfonyl-phenoxy)-1H-pyrrolo[2,3-b]pyridin-3-yl]-methanone]
≥ 5.00: Flt1 | Kdr

O=C(O)Cc1cccc(Oc2cnc3[nH]cc(C(=O)c4ccc(F)cc4Cl)c3c2)c1 [P-0039, {3-[3-(2-Chloro-4-fluoro-benzoyl)-1H-pyrrolo[2,3-b]pyridin-5-yloxy]-phenyl}-acetic acid]
≥ 5.00: B-Raf V600E/T529I | Btk | Fms | Kdr | Kit

O=C(c1ccc2cc[nH]c2c1)c1c[nH]c2ncc(OC3CCCC3)cc12 [P-0040, (5-Cyclopentyloxy-1H-pyrrolo[2,3-b]pyridin-3-yl)-(1H-indol-6-yl)-methanone]
≥ 5.00: B-Raf V600E/T529I | Flt1 | Fms | Jnk1 | Kdr | Kit

CCCS(=O)(=O)Nc1ccc(F)c(C(=O)c2c[nH]c3ncc(OCCN4CCOCC4)cc23)c1F [P-0041, Propane-1-sulfonic acid {2,4-difluoro-3-[5-(2-morpholin-4-yl-ethoxy)-1H-pyrrolo[2,3-b]pyridine-3-carbonyl]-phenyl}-amide]
≥ 5.00: B-Raf | B-Raf V600E | Kdr | Src

CCCS(=O)(=O)Nc1ccc(F)c(C(=O)c2c[nH]c3ncc(OC4CCOCC4)cc23)c1F [P-0045, Propane-1-sulfonic acid {2,4-difluoro-3-[5-(tetrahydro-pyran-4-yloxy)-11H-pyrrolo[2,3-b]pyridine-3-carbonyl]-phenyl}-amide]
not listed: Jnk1 | c-Raf-1 | Flt1 | Btk
≥ 5.00: all other assays above

CCCS(=O)(=O)Nc1ccc(F)c(C(=O)c2c[nH]c3ncc(S(=O)(=O)c4ccc(C)cc4)cc23)c1F [P-0047, Propane-1-sulfonic acid {2,4-difluoro-3-[5-(toluene-4-sulfonyl)-1H-pyrrolo[2,3-b]pyridine-3-carbonyl]-phenyl}-amide]
≥ 5.00: B-Raf | B-Raf V600E | Kdr

Source: patent US8268858B2, “Compounds and methods for kinase modulation, and indications therefor” (Plexxikon Inc., priority 2006, dated 2012)
